The values that follow come from patent US6979684B1, “Pyrrolo[2,1-c][1,4]benzodiazepine-napthalimide conjugates linked through piperazine moiety and process for preparation thereof” (Council of Scientific and Industrial Research, priority 2004, dated 2005).

Molecules are shown by their SMILES.

The subject of one assay is CT-DNA. In words: DNA Thermal Denaturation Studies. It is filed as binding. Particulars: 1:5 [PBD]/[DNA], CT-DNA 100 μM, ligand 20 μM, sodium phosphate buffer pH 7.00, values ±0.1–0.2° C.; for Induced […]Tm ° C. after incubation at 37° C. 0 h: 0 h at 37° C.; for Induced […]Tm ° C. after incubation at 37° C. 18 h: 18 h at 37° C. The method, then:
For CT-DNA alone at pH 7.00±0.01, Tm=69.8° C.±0.01 (mean value from 10 separate determinations), all ΔTm values are ±0.1–0.2° C. For a 1:5 molar ratio of [PBD]/[DNA], where CT-DNA concentration=100 μM and ligand concentration=20 μM in aqueous sodium phosphate buffer [10 mM sodium phosphate+1 mM EDTA, pH 7.00±0.01].

The subject of another assay is HT-29. In words: In vitro cytotoxicity (SRB), percentage growth inhibition, HT-29. Particulars: HT-29 (colon), 48 hours. The assay is classed as cell-based, human. On the procedure:
(§1) In vitro cytotoxicity against human cancer cell lines: The human cancer cell lines procured from National Cancer Institute, Frederick, U.S.A or National Center for Cell Science; Pune, India. were used in present study. Cells were grown in tissue culture flasks in complete growth medium (RPMI-1640 medium with 2 mM glutamine, 100 μg/ml streptomycin, pH 7.4, sterilized by filtration and supplemented with 10% fetal calf serum and 100 units/ml penicillin before use) at 37° C. in an atmosphere of 5% CO2 and 90% relative humidity in a carbon dioxide incubator. The cells at subconfluent stage were harvested from the flask by treatment with trypsin (0.5% in PBS containing 0.02% EDTA) for determination of cytotoxicity. Cells with viability of more than 98% as determined by trypan blue exclusion were used for assay. The cell suspension of the required cell density were prepared in complete growth medium with gentamycin (50 μg/ml) for determination of cytotoxicity.
(§2) A stock solutions of (2×10^−2 M) of test material were prepared in DMSO. The stock solutions were serially diluted with complete growth medium containing 50 μg/ml of gentamycin to obtain working test solutions of required concentrations.
(§3) In vitro cytotoxicity against human cancer cell lines was determined (Monks, A., Scudiero, D., Skehan, P, Shoemaker R., Paull, K., Vistica, D., Hose, C., Langley, J., Cronise, P., Vaigro-Wolff, A., Gray-Goodrich, M., Campbell, H., Mayo, J and Boyd M. J. Natl. Cancer Inst., 1991, 83, 757–766) using 96-well tissue culture plates. The 100 μl of cell suspension was added to each well of the 96-well tissue culture plate. The cells were incubated for 24 hours. Test materials in complete growth medium (100 μl) were added after 24 hours incubation to the wells containing cell suspension. The plates were further incubated for 48 hours (at 37° C. in an atmosphere of […] 90% relative humidity in a carbon dioxide incubator) after addition of test material and then the cell growth was stopped by gently layering trichloroacetic acid (TCA, 50 μl, 50%) on top of the medium in all the wells. The plates were incubated at 4° C. for one hour to fix the cells attached to the bottom of the wells. The liquid of all the wells was gently pipetted out and discarded. The plates were washed five times with distilled water to remove TCA, growth medium low molecular weight metabolites, serum proteins etc and air-dried. Cell growth was measured by staining with sulforhodamine B dye (Skehan et al., 1990). The adsorbed dye was dissolved in Tris-Buffer ([…], 0.01 M, pH 10.4) and plates were gently stirred for 5 minutes on a mechanical stirrer. The optical density was recorded on ELISA reader at 540 nm.
(§4) The cell growth was calculated by subtracting mean OD value of respective blank from the mean OD value of experimental set. Percent growth in presence of test material was calculated considering the growth in absence of any test material as 100% and in turn percent growth inhibition in presence of test material will be calculated.

For another assay, the system named is HCT-15. In words: In vitro cytotoxicity (SRB), percentage growth inhibition, HCT-15. Particulars: HCT-15 (colon), 48 hours. The assay is classed as cell-based, human. On the procedure: as §1, §2, §3, §4
A further assay concerns A-549. Nature of the assay: In vitro cytotoxicity (SRB), percentage growth inhibition, A-549. It is filed as cell-based, human. Conditions: A-549 (lung), 48 hours. On the procedure: as §1, §2, §3, §4
Another assay concerns HOP-62. Nature of the assay: In vitro cytotoxicity (SRB), percentage growth inhibition, HOP-62. It is filed as cell-based, human. Conditions: HOP-62 (lung), 48 hours. On the procedure: as §1, §2, §3, §4
Another assay has as its system SiHa. In words: In vitro cytotoxicity (SRB), percentage growth inhibition, SiHa. It is filed as cell-based, human. Conditions: SiHa (cervix), 48 hours. On the procedure:
as §1, §2, §3, §4

Regarding `COc1cc2c(cc1O)N=CC1CCCN1C2=O` (centres unmarked) [DC-81, reference compound], in the assay on CT-DNA, the “Induced […]Tm ° C. after incubation at 37° C. 0 h” value amounted to 0.3 °C and the “Induced […]Tm ° C. after incubation at 37° C. 18 h” value worked out at 0.7 °C.

For `COc1cc2c(cc1OCCN1CCN(CCN3C(=O)c4cccc5cccc(c45)C3=O)CC1)N=C[C@@H]1CCCN1C2=O` [VIIIa, 7-Methoxy-8-{2-[4-[2-(1,3-dioxo-benz[de]isoquinolin-2-yl)ethyl]piperazin-1-yl]ethyl}-oxy-(11aS)-1,2,3,11a tetrahydro-5H-pyrrolo[2,1-c][1,4]benzodiazepin-5-one], in the assay on CT-DNA, the “Induced […]Tm ° C. after incubation at 37° C. 0 h” value stood at 21.9 °C and the “Induced […]Tm ° C. after incubation at 37° C. 18 h” value is 22.7 °C.

Take `COc1cc2c(cc1OCCCCN1CCN(CCN3C(=O)c4cccc5cccc(c45)C3=O)CC1)N=C[C@@H]1CCCN1C2=O` [VIIIc, 7-Methoxy-8-{4-[4-[2-(1,3-dioxo-benz[de]isoquinolin-2-yl)ethyl]piperazin-1-yl]butyl}-oxy-(11aS)-1,2,3,11a tetrahydro-5H-pyrrolo[2,1-c][1,4]benzodiazepin-5-one]: the “percentage growth inhibition HT-29” value with HT-29 (10^−4 mol/L) is listed as 94%; in the assay with HT-29 (10^−5 mol/L), 86%; with HT-29 (10^−6 mol/L), 80%. Moreover, the “percentage growth inhibition HCT-15” value in the assay with HCT-15 (10^−5 mol/L) is reported as 69%; with HCT-15 (10^−6 mol/L) it was 60%. In addition, the “percentage growth inhibition A-549” value with A-549 (10^−4 mol/L) is on record as 95%. Besides, the “percentage growth inhibition HOP-62” value came to 93% in the assay with HOP-62 (10^−5 mol/L) and 86% with HOP-62 (10^−6 mol/L). Moreover, the “percentage growth inhibition SiHa” value in the assay on SiHa (10^−4 mol/L) was found to be 56%; with SiHa (10^−5 mol/L), 39%. In addition, the “Induced […]Tm ° C. after incubation at 37° C. 0 h” value with CT-DNA was 23.4 °C. Further, in the assay on CT-DNA, the “Induced […]Tm ° C. after incubation at 37° C. 18 h” value stood at 24.2 °C.

As to `COc1cc2c(cc1OCCCCN1CCN(CCCCN3C(=O)c4cccc5cccc(c45)C3=O)CC1)N=C[C@@H]1CCCN1C2=O` [VIIIe, 7-Methoxy-8-{4-[4-[4-(1,3-dioxo-benz[de]isoquinolin-2-yl)butyl]piperazin-1-yl]butyl}-oxy-(11aS)-1,2,3,11a tetrahydro-5H-pyrrolo[2,1-c][1,4]benzodiazepin-5-one], the “percentage growth inhibition HT-29” value was determined as 92% with HT-29 (10^−4 mol/L), 78% in the assay on HT-29 (10^−5 mol/L) and 67% in the assay on HT-29 (10^−6 mol/L). Moreover, the “percentage growth inhibition HCT-15” value came out at 62% with HCT-15 (10^−5 mol/L) and 59% with HCT-15 (10^−6 mol/L). The “percentage growth inhibition A-549” value in the assay with A-549 (10^−4 mol/L) is listed as 93%. In addition, the “percentage growth inhibition HOP-62” value is reported as 93% in the assay with HOP-62 (10^−5 mol/L) and 80% in the assay on HOP-62 (10^−6 mol/L). In addition, the “percentage growth inhibition SiHa” value in the assay on SiHa (10^−4 mol/L) worked out at 42%; in the assay with SiHa (10^−5 mol/L) it was 40%; in the assay with SiHa (10^−6 mol/L), 44%. Also, in the assay with CT-DNA, the “Induced […]Tm ° C. after incubation at 37° C. 0 h” value was 20.9 °C. Besides, the “Induced […]Tm ° C. after incubation at 37° C. 18 h” value in the assay with CT-DNA was found to be 21.7 °C.

As for `COc1cc2c(cc1OCCCN1CCN(CCCN3C(=O)c4cccc5cccc(c45)C3=O)CC1)N=C[C@@H]1CCCN1C2=O` [VIIId, 7-Methoxy-8-{3-[4-[3-(1,3-dioxo-benz[de]isoquinolin-2-yl)propyl]piperazin-1-yl]propyl}-oxy-(11aS)-1,2,3,11a tetrahydro-5H-pyrrolo[2,1-c][1,4]benzodiazepin-5-one], the figures for the “percentage growth inhibition HT-29” value with HT-29 (10^−4 mol/L), with HT-29 (10^−5 mol/L) and with HT-29 (10^−6 mol/L) were 95%, 62% and 63%, respectively. Moreover, the “percentage growth inhibition A-549” value was 95% with A-549 (10^−4 mol/L), 30% in the assay with A-549 (10^−5 mol/L) and 51% with A-549 (10^−6 mol/L). Further, in the assay with HOP-62 (10^−4 mol/L), the “percentage growth inhibition HOP-62” value is reported as 78%. Besides, the “percentage growth inhibition SiHa” value in the assay with SiHa (10^−4 mol/L) is listed as 85%; with SiHa (10^−5 mol/L) it was 65%; in the assay on SiHa (10^−6 mol/L) it was 31%. Besides, in the assay on CT-DNA, the “Induced […]Tm ° C. after incubation at 37° C. 0 h” value was found to be 13.1 °C. The “Induced […]Tm ° C. after incubation at 37° C. 18 h” value with CT-DNA turned out to be 14.3 °C.

Turning to `COc1cc2c(cc1OCCCN1CCN(CCN3C(=O)c4cccc5cccc(c45)C3=O)CC1)N=C[C@@H]1CCCN1C2=O` [VIIIb, 7-Methoxy-8-{3-[4-[2-(1,3-dioxo-benz[de]isoquinolin-2-yl)ethyl]piperazin-1-yl]propyl}-oxy-(11aS)-1,2,3,11a tetrahydro-5H-pyrrolo[2,1-c][1,4]benzodiazepin-5-one], the entries for the “percentage growth inhibition HT-29” value in the assay on HT-29 (10^−4 mol/L), in the assay on HT-29 (10^−5 mol/L) and with HT-29 (10^−6 mol/L) were 88%, 85% and 91%, respectively. Also, the figures for the “percentage growth inhibition HCT-15” value in the assay on HCT-15 (10^−5 mol/L) and in the assay with HCT-15 (10^−6 mol/L) were 59% and 58%, respectively. In the assay on A-549 (10^−4 mol/L), the “percentage growth inhibition A-549” value is 88%. For the same molecule, the “percentage growth inhibition HOP-62” value with HOP-62 (10^−5 mol/L) was found to be 86%; with HOP-62 (10^−6 mol/L) it was 72%. For the same molecule, the “percentage growth inhibition SiHa” value with SiHa (10^−5 mol/L) worked out at 44%; in the assay on SiHa (10^−6 mol/L), 54%. For the same molecule, the “Induced […]Tm ° C. after incubation at 37° C. 0 h” value with CT-DNA worked out at 25.8 °C. In the assay on CT-DNA, the “Induced […]Tm ° C. after incubation at 37° C. 18 h” value came to 26.7 °C.
